Reference: ChEMBL document CHEMBL1201862, “PubChem BioAssay data set” (2004)
Activity calls are given as the source filed them.

Tests used:
[1] = luciferase reporter signal suppression in cells – H4 neuroglioma cells, luminescence, dose response (AID 1990); format: functional, cell-based
[2] = Luminescence Cell-Based Dose Response HTS to Identify Inhibitors of 5'UTR Stem-Loop Driven Prion Protein mRNA Translation in H4 Neuroglioblastoma Cells. [Related pubchem assays: 1827 (Project Summary), 1813 (Primary HTS)]; format: functional
[3] = alpha-synuclein stem-loop luciferase translation blockers – H4 neuroglioma cells, luminescence, confirmation (AID 1988); format: functional, cell-based
[4] = target: Mothers against decapentaplegic homolog 3 (Homo sapiens, UniProt P84022); experiment: inhibitors of SMAD-driven TGF-beta signaling – dose response (AID 715); format: functional
Estrogen receptor beta [5] = target: T1, Estrogen receptor beta (Homo sapiens, UniProt Q92731);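 further: recombinant ER-beta bound to coactivator SRC1 peptide in presence of estradiol agonist; inhibitors block coactivator peptide binding and lower the FRET signal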
Estrogen receptor beta [6] = target: T1, Estrogen receptor beta; experiment: blockers of SRC-3 recruitment to ERβ – biochemical, ELISA, streptavidin-HRP readout, orthogonal assay, confirmation (AID 1060)
[7] = target: Protein-tyrosine kinase 2-beta (Homo sapiens, UniProt Q14289);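 further: potency of inhibitors of PYK2 kinase phosphorylation of poly-GT substrate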
[8] = target: Peroxisome proliferator-activated receptor gamma/Nuclear receptor corepressor 2 (Homo sapiens, UniProt P37231+Q9Y618); experiment: Counterscreen for NR2E3 inverse agonists: TR-FRET-based biochemical high throughput dose response assay to identify inverse agonists of the interaction between peroxisome proliferator-activated receptor gamma (PPARg) and nuclear receptor co-repressor 2 (NCOR2).; format: functional
[9] = target: Photoreceptor-specific nuclear receptor (Homo sapiens, UniProt Q9Y5X4); experiment: ligands suppressing NR2E3 nuclear receptor activity – biochemical, TR-FRET, dose response (AID 463256); format: functional
[10] = target: T2, Apoptotic protease-activating factor 1 (Homo sapiens, UniProt O14727); format: functional
T2 sequence (O14727 whole entry): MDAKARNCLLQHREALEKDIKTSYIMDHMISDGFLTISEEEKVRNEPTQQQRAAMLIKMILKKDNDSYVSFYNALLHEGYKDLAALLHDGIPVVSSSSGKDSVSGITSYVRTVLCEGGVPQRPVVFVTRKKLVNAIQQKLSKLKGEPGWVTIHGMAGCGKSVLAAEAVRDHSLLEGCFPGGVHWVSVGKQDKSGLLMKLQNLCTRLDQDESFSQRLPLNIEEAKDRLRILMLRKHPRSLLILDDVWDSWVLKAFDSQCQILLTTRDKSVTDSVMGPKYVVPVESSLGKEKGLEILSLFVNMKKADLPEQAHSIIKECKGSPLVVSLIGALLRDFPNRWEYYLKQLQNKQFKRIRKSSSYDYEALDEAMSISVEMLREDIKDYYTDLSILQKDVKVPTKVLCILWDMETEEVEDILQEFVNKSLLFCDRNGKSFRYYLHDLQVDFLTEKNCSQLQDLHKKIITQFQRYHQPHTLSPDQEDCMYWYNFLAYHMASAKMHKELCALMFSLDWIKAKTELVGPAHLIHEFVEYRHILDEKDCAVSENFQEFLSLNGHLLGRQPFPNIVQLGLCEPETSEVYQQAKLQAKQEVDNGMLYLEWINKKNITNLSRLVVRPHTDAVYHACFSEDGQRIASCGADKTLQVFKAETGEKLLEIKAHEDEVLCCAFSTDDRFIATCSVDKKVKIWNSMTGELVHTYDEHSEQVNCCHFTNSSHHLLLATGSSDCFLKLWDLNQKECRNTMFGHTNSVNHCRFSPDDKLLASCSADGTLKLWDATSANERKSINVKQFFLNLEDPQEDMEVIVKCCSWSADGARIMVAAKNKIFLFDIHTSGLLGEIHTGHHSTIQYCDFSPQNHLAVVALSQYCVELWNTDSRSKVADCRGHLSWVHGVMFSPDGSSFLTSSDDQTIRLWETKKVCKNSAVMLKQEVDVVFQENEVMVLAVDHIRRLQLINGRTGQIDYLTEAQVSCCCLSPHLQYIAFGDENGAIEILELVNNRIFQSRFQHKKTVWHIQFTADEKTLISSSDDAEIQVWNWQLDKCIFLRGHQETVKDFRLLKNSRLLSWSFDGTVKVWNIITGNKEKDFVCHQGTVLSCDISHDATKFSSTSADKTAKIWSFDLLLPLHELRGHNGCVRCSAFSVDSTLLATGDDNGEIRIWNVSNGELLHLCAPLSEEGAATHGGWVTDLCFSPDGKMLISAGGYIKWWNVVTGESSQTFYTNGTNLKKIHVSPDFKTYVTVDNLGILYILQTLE

[11] = target: T2, Apoptotic protease-activating factor 1; experiment: SAR analysis of small molecule inhibitors of Apaf-1 in a Fluorescent assay.; format: functional; conditions: read-out: IC50_Mean
[12] = viability loss in HEK293T cells – cell-based, cherry-picks, cytotoxicity control for HIV Vif inhibitor project, dose response (AID 652208); format: functional
HEK293 [13] = experiment: cells; conditions: Homo sapiens
HEK293 [14] = experiment: cells; conditions: Homo sapiens; remark: listed apart in the source
[15] = target: Protein kinase C theta type (Homo sapiens, UniProt Q04759); experiment: Navigating the Kinome. Panel member name: PRKCQ; format: functional
[16] = target: Dual specificity protein kinase CLK2 (Homo sapiens, UniProt P49760); format: functional
[17] = target: Serine/threonine-protein kinase PLK3 (Homo sapiens, UniProt Q9H4B4); format: functional
[18] = target: RAC-gamma serine/threonine-protein kinase (Homo sapiens, UniProt Q9Y243); format: functional
[19] = target: 5'-AMP-activated protein kinase catalytic subunit alpha-1 (Homo sapiens, UniProt Q13131); format: functional
[20] = target: Tyrosine-protein kinase receptor TYRO3 (Homo sapiens, UniProt Q06418); format: functional;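 further: TYRO3 value obtained as one member of a kinome-wide profiling panel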
[21] = target: Serine/threonine-protein kinase D3 (Homo sapiens, UniProt O94806); format: functional;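 further: determined within a kinase panel screen, with PRKCN as the panel member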
[22] = target: Death-associated protein kinase 3 (Homo sapiens, UniProt O43293); format: functional;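 further: measured as one member of a kinome-wide profiling panel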
Activin receptor type-1 = Activin receptor type-1 (Homo sapiens, UniProt Q04771); experiment: Navigating the Kinome. Panel member name: ACVR1; format: functional
[23] = target: Mitogen-activated protein kinase 8 (Homo sapiens, UniProt P45983); format: functional;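 further: value comes from one member of a kinome-wide kinase profiling panel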
[24] = target: Serine/threonine-protein kinase pim-1 (Homo sapiens, UniProt P11309); format: functional
Aurora kinase A = Aurora kinase A (Homo sapiens, UniProt O14965); format: functional;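 further: value from the Navigating the Kinome kinase panel profiling, panel entry STK6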
[25] = target: Fibroblast growth factor receptor 1 (Homo sapiens, UniProt P11362); format: functional
LIM domain kinase 1 = LIM domain kinase 1 (Homo sapiens, UniProt P53667); experiment: Navigating the Kinome. Panel member name: LIMK1; format: functional
[26] = target: High affinity nerve growth factor receptor (Homo sapiens, UniProt P04629); format: functional;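 further: NTRK1 tested as one member of a kinome-wide profiling panel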
[27] = target: Serine/threonine-protein kinase pim-3 (Homo sapiens, UniProt Q86V86); format: functional;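 further: value obtained as one member of a broad kinase panel profiling effort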
Activated CDC42 kinase 1 = Activated CDC42 kinase 1 (Homo sapiens, UniProt Q07912); experiment: Navigating the Kinome. Panel member name: ACK1; format: functional
[28] = target: Platelet-derived growth factor receptor beta (Homo sapiens, UniProt P09619); format: functional;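 further: value comes from a kinome panel, with PDGFRB tested as one panel member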
[29] = target: Vascular endothelial growth factor receptor 2 (Homo sapiens, UniProt P35968); format: functional
[30] = target: Dual specificity tyrosine-phosphorylation-regulated kinase 1B (Homo sapiens, UniProt Q9Y463); experiment: Navigating the Kinome. Panel member name: DYRK1B; format: functional
[31] = target: cAMP-dependent protein kinase catalytic subunit PRKX (Homo sapiens, UniProt P51817); format: functional
[32] = target: Platelet-derived growth factor receptor alpha (Homo sapiens, UniProt P16234); experiment: Navigating the Kinome. Panel member name: PDGFRA; format: functional
[33] = target: Leucine-rich repeat serine/threonine-protein kinase 2 (Homo sapiens, UniProt Q5S007); format: functional;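 further: value from a broad kinome-wide panel profiling study in which LRRK2 was one of the kinases tested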
Aurora kinase B = Aurora kinase B (Homo sapiens, UniProt Q96GD4); format: functional
[34] = target: RAC-alpha serine/threonine-protein kinase (Homo sapiens, UniProt P31749); format: functional;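 further: AKT1 affinity measured as one member of a kinome-wide kinase profiling panel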
[35] = target: Rho-associated protein kinase 1 (Homo sapiens, UniProt Q13464); format: functional;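 further: measured within a broad kinome-wide panel profiling many kinases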
[36] = target: Serine/threonine-protein kinase Nek2 (Homo sapiens, UniProt P51955); format: functional
[37] = target: Cyclin-dependent kinase 8 (Homo sapiens, UniProt P49336); experiment: Navigating the Kinome. Panel member name: CDK8; format: functional
[38] = target: Cyclin-dependent kinase 7 (Homo sapiens, UniProt P50613); format: functional;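 further: value comes from a kinome-wide kinase profiling panel in which CDK7 is one member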
[39] = target: Serine/threonine-protein kinase PLK1 (Homo sapiens, UniProt P53350); format: functional;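 further: PLK1 measured as one member of a kinome-wide profiling panel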
[40] = target: Cyclin-dependent kinase 9 (Homo sapiens, UniProt P50750); format: functional;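 further: value from the CDK9 entry of a kinome-spanning kinase panel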
[41] = target: cAMP-dependent protein kinase catalytic subunit alpha (Homo sapiens, UniProt P17612); format: functional
[42] = target: Dual specificity protein kinase CLK4 (Homo sapiens, UniProt Q9HAZ1); format: functional
[43] = target: Mitogen-activated protein kinase kinase kinase kinase 4 (Homo sapiens, UniProt O95819); format: functional
[44] = target: Macrophage colony-stimulating factor 1 receptor (Homo sapiens, UniProt P07333); format: functional;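 further: value comes from the Navigating the Kinome screening panel, CSF1R member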
[45] = target: Dual specificity tyrosine-phosphorylation-regulated kinase 1A (Homo sapiens, UniProt Q13627); format: functional;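 further: measured against DYRK1A as one member of a broad kinome profiling panel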
[46] = target: Inhibitor of nuclear factor kappa-B kinase subunit epsilon (Homo sapiens, UniProt Q14164); experiment: Navigating the Kinome. Panel member name: IKBKE; format: functional
[47] = target: Calcium/calmodulin-dependent protein kinase type II subunit alpha (Homo sapiens, UniProt Q9UQM7); experiment: Navigating the Kinome. Panel member name: CAMK2A; format: functional
[48] = target: Leukocyte tyrosine kinase receptor (Homo sapiens, UniProt P29376); experiment: Navigating the Kinome. Panel member name: LTK; format: functional

T1 sequence (Q92731 whole entry): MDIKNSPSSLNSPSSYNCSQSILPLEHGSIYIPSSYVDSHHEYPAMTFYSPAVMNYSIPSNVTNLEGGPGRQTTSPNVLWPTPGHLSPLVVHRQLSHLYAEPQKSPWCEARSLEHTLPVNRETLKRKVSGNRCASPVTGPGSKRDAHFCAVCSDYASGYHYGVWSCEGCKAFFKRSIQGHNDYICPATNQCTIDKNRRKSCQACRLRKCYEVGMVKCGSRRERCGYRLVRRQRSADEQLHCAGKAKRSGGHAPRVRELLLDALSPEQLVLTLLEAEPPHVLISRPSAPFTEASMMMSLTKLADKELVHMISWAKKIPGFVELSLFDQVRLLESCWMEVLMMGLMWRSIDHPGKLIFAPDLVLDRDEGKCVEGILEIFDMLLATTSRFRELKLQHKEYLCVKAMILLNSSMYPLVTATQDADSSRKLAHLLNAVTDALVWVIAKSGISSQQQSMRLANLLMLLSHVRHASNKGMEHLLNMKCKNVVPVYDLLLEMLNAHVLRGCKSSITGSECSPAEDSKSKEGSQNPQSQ
Mothers against decapentaplegic homolog 3, sequence (P84022 whole entry): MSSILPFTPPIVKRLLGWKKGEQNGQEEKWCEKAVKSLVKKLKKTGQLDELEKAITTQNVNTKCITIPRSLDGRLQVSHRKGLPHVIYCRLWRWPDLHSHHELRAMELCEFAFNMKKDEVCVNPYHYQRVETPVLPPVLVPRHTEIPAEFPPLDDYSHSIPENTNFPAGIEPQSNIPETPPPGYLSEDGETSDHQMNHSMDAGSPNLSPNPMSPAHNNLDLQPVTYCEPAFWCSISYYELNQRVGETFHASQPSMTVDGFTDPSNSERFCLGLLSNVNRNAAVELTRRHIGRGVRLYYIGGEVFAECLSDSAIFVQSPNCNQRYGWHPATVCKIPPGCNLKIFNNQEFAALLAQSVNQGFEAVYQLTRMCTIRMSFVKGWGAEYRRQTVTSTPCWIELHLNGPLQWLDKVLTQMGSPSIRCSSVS
Photoreceptor-specific nuclear receptor, sequence (Q9Y5X4 whole entry): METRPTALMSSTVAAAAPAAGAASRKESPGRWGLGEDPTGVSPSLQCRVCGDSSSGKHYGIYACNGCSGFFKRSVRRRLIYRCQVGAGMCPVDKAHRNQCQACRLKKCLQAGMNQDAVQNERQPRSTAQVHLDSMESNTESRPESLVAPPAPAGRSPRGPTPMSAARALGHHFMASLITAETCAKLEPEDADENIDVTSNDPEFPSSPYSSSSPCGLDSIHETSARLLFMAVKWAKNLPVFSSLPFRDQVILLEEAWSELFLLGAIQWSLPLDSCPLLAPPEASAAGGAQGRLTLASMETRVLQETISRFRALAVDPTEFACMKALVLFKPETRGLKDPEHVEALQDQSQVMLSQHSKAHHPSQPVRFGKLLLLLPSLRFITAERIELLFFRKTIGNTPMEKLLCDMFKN
High affinity nerve growth factor receptor, sequence (P04629 whole entry): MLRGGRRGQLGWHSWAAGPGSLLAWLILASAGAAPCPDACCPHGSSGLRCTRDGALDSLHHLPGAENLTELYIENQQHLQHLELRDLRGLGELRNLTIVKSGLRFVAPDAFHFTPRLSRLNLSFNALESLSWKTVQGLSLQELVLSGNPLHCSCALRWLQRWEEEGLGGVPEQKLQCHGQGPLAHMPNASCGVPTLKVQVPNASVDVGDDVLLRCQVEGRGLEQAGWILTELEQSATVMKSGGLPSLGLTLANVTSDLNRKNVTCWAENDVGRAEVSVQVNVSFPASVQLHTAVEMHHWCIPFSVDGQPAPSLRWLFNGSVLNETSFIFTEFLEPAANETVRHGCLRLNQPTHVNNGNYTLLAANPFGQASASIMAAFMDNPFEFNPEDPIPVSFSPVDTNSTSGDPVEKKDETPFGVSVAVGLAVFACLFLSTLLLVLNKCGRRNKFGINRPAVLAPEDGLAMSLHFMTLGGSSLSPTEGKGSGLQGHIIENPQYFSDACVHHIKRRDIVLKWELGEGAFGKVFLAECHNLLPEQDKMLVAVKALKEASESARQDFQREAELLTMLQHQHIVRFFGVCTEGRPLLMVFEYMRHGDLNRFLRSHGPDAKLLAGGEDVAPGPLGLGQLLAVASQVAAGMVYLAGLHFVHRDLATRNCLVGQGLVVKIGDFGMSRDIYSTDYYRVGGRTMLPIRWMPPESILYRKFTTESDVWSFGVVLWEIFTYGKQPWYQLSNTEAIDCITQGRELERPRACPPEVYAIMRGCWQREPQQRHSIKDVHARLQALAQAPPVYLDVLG
Dual specificity tyrosine-phosphorylation-regulated kinase 1B, sequence (Q9Y463 whole entry): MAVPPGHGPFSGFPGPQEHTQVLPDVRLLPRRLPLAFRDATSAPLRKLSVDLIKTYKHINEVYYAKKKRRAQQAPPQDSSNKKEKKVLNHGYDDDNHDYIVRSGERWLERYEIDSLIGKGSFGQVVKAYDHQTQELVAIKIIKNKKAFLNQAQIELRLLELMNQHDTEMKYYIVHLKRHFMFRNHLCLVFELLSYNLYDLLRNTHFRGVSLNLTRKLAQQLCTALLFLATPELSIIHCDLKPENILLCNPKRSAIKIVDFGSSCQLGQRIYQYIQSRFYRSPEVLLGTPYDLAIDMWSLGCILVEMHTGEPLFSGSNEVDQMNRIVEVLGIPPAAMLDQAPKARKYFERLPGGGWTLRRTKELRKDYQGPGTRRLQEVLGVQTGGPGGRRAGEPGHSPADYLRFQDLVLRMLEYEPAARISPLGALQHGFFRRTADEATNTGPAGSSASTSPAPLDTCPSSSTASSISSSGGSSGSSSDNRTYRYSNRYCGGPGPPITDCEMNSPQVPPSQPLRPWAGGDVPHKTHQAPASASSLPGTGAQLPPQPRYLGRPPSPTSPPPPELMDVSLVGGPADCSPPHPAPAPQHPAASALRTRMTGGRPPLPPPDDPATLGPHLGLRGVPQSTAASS
Rho-associated protein kinase 1, sequence (Q13464 whole entry): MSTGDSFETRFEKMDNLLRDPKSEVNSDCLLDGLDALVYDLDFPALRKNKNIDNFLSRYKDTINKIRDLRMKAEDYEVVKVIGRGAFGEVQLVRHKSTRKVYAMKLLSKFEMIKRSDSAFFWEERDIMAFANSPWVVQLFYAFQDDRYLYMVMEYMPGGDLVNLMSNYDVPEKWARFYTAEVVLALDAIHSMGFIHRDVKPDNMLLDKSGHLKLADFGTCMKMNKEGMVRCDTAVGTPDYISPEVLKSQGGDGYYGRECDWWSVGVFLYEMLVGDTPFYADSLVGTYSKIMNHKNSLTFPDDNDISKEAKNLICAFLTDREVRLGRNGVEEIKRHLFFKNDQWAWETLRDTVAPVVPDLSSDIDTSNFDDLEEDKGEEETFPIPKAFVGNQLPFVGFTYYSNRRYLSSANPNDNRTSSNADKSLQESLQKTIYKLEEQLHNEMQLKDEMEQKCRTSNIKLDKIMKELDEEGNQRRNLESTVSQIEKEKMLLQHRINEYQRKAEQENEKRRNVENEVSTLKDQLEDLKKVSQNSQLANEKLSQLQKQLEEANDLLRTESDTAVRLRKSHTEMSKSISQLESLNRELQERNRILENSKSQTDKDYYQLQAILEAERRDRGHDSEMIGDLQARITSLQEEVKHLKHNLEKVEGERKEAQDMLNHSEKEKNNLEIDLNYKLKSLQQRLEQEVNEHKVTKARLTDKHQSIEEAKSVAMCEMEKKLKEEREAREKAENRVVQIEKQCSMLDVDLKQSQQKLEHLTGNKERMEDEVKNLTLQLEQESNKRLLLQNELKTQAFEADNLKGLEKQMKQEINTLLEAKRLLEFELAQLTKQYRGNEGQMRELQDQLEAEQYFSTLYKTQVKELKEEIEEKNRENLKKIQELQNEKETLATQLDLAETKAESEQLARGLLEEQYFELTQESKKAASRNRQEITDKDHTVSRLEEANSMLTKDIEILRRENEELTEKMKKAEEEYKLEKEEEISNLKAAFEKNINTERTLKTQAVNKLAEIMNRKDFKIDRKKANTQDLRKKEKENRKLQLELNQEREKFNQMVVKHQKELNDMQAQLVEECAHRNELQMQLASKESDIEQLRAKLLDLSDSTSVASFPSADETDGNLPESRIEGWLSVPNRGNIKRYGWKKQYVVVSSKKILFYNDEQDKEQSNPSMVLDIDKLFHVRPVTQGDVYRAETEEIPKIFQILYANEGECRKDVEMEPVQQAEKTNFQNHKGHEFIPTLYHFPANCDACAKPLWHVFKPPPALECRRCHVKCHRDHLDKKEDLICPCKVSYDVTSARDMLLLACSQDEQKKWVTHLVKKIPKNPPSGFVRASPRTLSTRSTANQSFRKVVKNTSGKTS
Cyclin-dependent kinase 8, sequence (P49336 whole entry): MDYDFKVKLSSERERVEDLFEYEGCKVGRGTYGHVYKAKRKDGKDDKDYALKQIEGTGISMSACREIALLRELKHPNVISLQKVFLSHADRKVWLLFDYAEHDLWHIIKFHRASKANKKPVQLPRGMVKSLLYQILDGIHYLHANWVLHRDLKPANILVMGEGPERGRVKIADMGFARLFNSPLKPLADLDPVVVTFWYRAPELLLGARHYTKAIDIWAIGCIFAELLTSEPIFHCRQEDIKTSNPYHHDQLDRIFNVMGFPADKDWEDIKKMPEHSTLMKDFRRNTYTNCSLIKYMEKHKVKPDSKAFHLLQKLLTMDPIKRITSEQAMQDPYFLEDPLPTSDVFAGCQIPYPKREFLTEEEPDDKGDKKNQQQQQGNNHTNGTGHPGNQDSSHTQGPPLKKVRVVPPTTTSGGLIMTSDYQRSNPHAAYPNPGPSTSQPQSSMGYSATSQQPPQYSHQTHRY

## O=C(Nc1ccc(-c2nc3cc(NC(=O)c4cccs4)ccc3[nH]2)cc1)c1cccs1
[1]
  EC50: 225 nM (active)
[2]
  EC50: 40.1 µM (active)
[3]
  EC50: 275 nM (active)
[4]
  IC50: 64.4 µM (not active)
Estrogen receptor beta [5]
  IC50: 2.61 µM (active)
Estrogen receptor beta [6]
  IC50: > 109 µM (not active)
[7]
  IC50: 3.97 µM (active)
[8]
  IC50: 10.5 µM (not active)
[9]
  IC50: 9.36 µM (active)
[10]
  IC50: 8.21 µM (active)
[11]
  IC50: 8.37 µM (active)
[12]
  AC50: 23.1 µM (active)
HEK293 [13]
  EC50: > 59.6 µM (inactive)
HEK293 [14]
  EC50: > 59.6 µM (inactive)

## Nc1n[nH]c2nc(Cl)sc12
[15]
  Ki: 79.4 µM (active)
[16]
  Ki: 39.8 µM (active)
[17]
  Ki: > 79.4 µM (inactive)
[18]
  Ki: > 100 µM (inactive)
[19]
  Ki: 39.8 µM (active)
[20]
  Ki: 50.1 µM (active)
[21]
  Ki: 63.1 µM (active)
[22]
  Ki: 31.6 µM (active)
Activin receptor type-1
  Ki: 6.31 µM (active)
[23]
  Ki: 63.1 µM (active)
[24]
  Ki: > 63.1 µM (inactive)
Aurora kinase A
  Ki: 25.1 µM (active)
[25]
  Ki: > 63.1 µM (inactive)
LIM domain kinase 1
  Ki: 12.6 µM (active)
[26]
  Ki: 25.1 µM (active)
[27]
  Ki: 39.8 µM (active)
Activated CDC42 kinase 1
  Ki: 79.4 µM (active)
[28]
  Ki: > 79.4 µM (inactive)
[29]
  Ki: > 100 µM (inactive)
[30]
  Ki: 15.8 µM (active)
[31]
  Ki: 50.1 µM (active)
[32]
  Ki: 50.1 µM (active)
[33]
  Ki: 15.8 µM (active)
Aurora kinase B
  Ki: 50.1 µM (active)
[34]
  Ki: > 79.4 µM (inactive)
[35]
  Ki: 39.8 µM (active)
[36]
  Ki: 20 µM (active)
[37]
  Ki: 15.8 µM (active)
[38]
  Ki: 39.8 µM (active)
[39]
  Ki: > 79.4 µM (inactive)
[40]
  Ki: 12.6 µM (active)
[41]
  Ki: 31.6 µM (active)
[42]
  Ki: 5.01 µM (active)
[43]
  Ki: 50.1 µM (active)
[44]
  Ki: > 63.1 µM (inactive)
[45]
  Ki: 6.31 µM (active)
[46]
  Ki: 39.8 µM (active)
[47]
  Ki: 63.1 µM (active)
[48]
  Ki: 15.8 µM (active)
